# Literature values in article PMC11609630 (Cancer Discovery, 2024).
# Tested on: patients with TNBC
substance,measurement,setting,value
sacituzumab govitecan: TROP2-targeting antibody–drug conjugate,gain in ORR compared with chemotherapy,cohort of relapsed patients with TNBC,30%
same,patients experiencing adverse events of grade 3 or higher,such as neutropenia and leukopenia,more than 50%
